Key:
P2X3 receptor [1] = biological target: T1, P2X3 receptor (Canis lupus, UniProt A0A8I3S575); test: MST Kd; cryo-EM structure of the P2X3–ATP complex; assay type: binding
T1 construct: gene P2RX3; deletion of five first residues in the N-terminal region and the 33 last residues in the C-terminal region; homotrimer
T1 sequence (A0A8I3S575 6-364): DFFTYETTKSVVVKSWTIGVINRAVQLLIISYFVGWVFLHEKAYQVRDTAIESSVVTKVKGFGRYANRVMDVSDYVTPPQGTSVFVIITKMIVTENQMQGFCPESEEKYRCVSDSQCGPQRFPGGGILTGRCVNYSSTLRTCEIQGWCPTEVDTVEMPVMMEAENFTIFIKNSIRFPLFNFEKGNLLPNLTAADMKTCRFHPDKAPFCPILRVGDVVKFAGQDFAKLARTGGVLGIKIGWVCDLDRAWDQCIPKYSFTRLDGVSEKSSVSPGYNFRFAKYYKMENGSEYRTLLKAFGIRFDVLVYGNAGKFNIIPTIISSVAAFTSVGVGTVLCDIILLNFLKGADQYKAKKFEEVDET

P2X3 receptor [2] = biological target: T1, P2X3 receptor; test: ITC Kd; cryo-EM structure of the complex in peptidisc; also calcium influx IC50 […] in cells; assay type: binding
[3] = biological target: P2X3 receptor (Canis lupus), first five N-terminal and last 33 C-terminal residues deleted (Canis lupus sp.); test: cryo-EM structure; camlipixant-bound P2X3 reconstituted into peptidisc; camlipixant at a molar ratio of 1:5, 30 min on ice; C3 symmetry

Nc1ncnc2c1ncn2[C@@H]1O[C@H](COP(=O)(O)OP(=O)(O)OP(=O)(O)O)[C@@H](O)[C@H]1O [ATP]
Kd (P2X3 receptor [1]): 2000 nM

CNC(=O)c1cc(F)c(-c2nc3cc(C)ccn3c2C[C@H]2CN(C(=O)OC)CCO2)c(F)c1 [camlipixant]
Kd (P2X3 receptor [2]): 100 nM

P2X3 receptor (Canis lupus), first five N-terminal and last 33 C-terminal residues deleted
stoichiometry N [3]: 3

Reference: article PMC11783113, “Mechanistic insights into the selective targeting of P2X3 receptor by camlipixant antagonist” (The Journal of Biological Chemistry, 2024)
